According to patent publication US20250302808A1, “DEXMEDETOMIDINE TREATMENT REGIMENS” (BioXcel Therapeutics, Inc., priority 2021, published 2025):
Like-named read-outs stand apart in the source and are kept apart here.

Tests used:
opioid withdrawal = tested on: opioid withdrawal
Description: (§1) • COWS and SOWS scores during Days 6-12. COWS and SOWS scores on Days 6-12 were analyzed using a mixed-effects, repeated-measures model. […] Kaplan-Meier estimates were used to generate survival curves for each treatment group. […] Differences in mean agitation and sedation were compared between the treatment groups using the same mixed-effects, repeated-measures model described above.
Kaplan-Meier estimates were also used to generate survival curves over time in each treatment group. Logistic regression model was used to compare the dexmedetomidine hydrochloride oromucosal film and placebo groups on the numbers of subjects dropping out after opioid discontinuation.

[1] = Description: This was an adaptive Phase Ib/2 trial design. It was a randomized, double-blind, placebo-controlled, multiple ascending dose study assessing efficacy, pharmacokinetics, safety and tolerability of dexmedetomidine hydrochloride dosing in adult (65 years old and older) males and females with acute agitation associated with dementia.
The drug film was retained in the sublingual cavity until dissolved. Participants were also evaluated for local irritation around the area where the film was placed. Efficacy and safety assessments were conducted periodically before and after dosing. The next cohort was dosed after completing accrual of most prior panels, in accord with regular ongoing periodic safety and PK review as eligible subjects were assigned, dosed, and data became available.
Blood samples (4 mL) were collected at 0.5, 1, 2, 4, 8- and 24-hours post-dose per Schedule of Events (Table 9A).
All pharmacokinetic parameters were calculated using non-compartmental analysis using WinNonlin. Actual sampling times were used in all pharmacokinetic analyses. […] Other PK analyses might be performed as appropriate.
Plasma samples were collected at 0.5, 1, 2, (2.5 in re-dose subjects), 4 and 8 hr.

[2] = remark: listed apart in the source
Description: Blood samples (4 ml) were collected for pharmacokinetic analysis on inpatient Study Days 6 and 12 at 0, 2, 6, and 12 hours after the first dose of dexmedetomidine hydrochloride oromucosal film on Study Days 6 and 12.
Plasma concentration data for dexmedetomidine were analyzed by a popPK approach and reported separately. The plasma concentration data from this study were combined with PK data from other studies to develop the population PK model. The model was used to estimate exposure measures in subjects in this study through a modeling and simulation approach. • Interim data: The demographic data and baseline characteristics are given in Table 15C.

[3] = tested on: elderly dementia patients
Description: AEs, clinical laboratory tests, 12-lead ECG, Johns Hopkins Fall Risk Assessment score, and vital signs were monitored, and all observed and volunteered AEs were recorded. Blood pressure, heart rate and ECG were completed per schedule of assessments. Any abnormal clinically significant (investigator determined) vital sign measurement, clinical laboratory test, physical examination finding, or ECG parameter were repeated, until the value returned to baseline (or within normal limits) or the investigator deemed the abnormality to be of no clinical significance. Orthostatic assessments followed the CDC guidelines for the elderly (e.g. blood pressure upon standing for 1, 3 and 5 minutes). Safety and tolerability assessments were continued until the morning of Day 2 and Day 3 and were repeated on Day 7=2 days.
Safety was assessed during the study by the monitoring and recording of AEs, clinical laboratory test results (hematology, biochemistry, and urinalysis), vital sign measurements (systolic and diastolic blood pressures, heart rate measured as pulse, respiratory rate, and temperature), ECG, and physical examination findings.
Adverse events (AEs) were characterized by type, severity, seriousness, and relationship to treatment. Adverse events were coded by preferred term and system organ class using MedDRA version 20.0.

[4] = tested on: opioid withdrawal symptoms
Description: as §1

[5] = tested on: subjects undergoing opioid withdrawal; conditions: Fishman et al. 2019, cited from earlier work

Compound: Cc1cccc([C@H](C)c2cnc[nH]2)c1C [dexmedetomidine, (+) 4-(S)-[1-(2,3-dimethylphenyl)ethyl]-1H-imidazole]
- retention rate (opioid withdrawal; Day 6, 120 μg dose): at least 40%
- retention rate (opioid withdrawal; Day 6, 180 μg dose): at least 50%
- exposure levels in elderly dementia patients vs schizophrenia patients ([1]; Table 9E): higher exposure levels
- AUC higher in dementia patients than in schizophrenia (and bipolar disorder) patients ([1]; same dose): about 55%
- Cmax higher in dementia patients than in schizophrenia (and bipolar disorder) patients ([1]; same dose): about 38%
- plasma concentration as dose increased ([2]; 30 μg to 240 μg, days 6 and 12): dose dependent increases
- mean plasma concentrations between 2-hour and 12-hour timepoints ([2]; all doses): declined over time
- consequences of doses higher than about 90 μg [3]: negative consequences
- subjective rating of insomnia on SOWS scale ([4]; Day 7, about 240 μg twice daily): significant reduction
- ratings of anxiety or irritability on COWS scale ([4]; Day 8, about 240 μg twice daily): significant reduction

Compound: CC(Oc1c(Cl)cccc1Cl)C1=NCCN1 (stereo not drawn) [lofexidine]
- Adverse Event Bradycardia ([5]; 2.16 mg (N = 229)): 54 (24) n (%)
- Adverse Event Dizziness ([5]; 2.16 mg (N = 229)): 44 (19) n (%)
- Adverse Event Orthostatic hypotension ([5]; 2.16 mg (N = 229)): 67 (29) n (%)
- Adverse Event Somnolence ([5]; 2.16 mg (N = 229)): 25 (10.9) n (%)
- Adverse Event Bradycardia ([5]; 2.88 mg (N = 229)): 70 (32) n (%)
- Adverse Event Dizziness ([5]; 2.88 mg (N = 229)): 51 (23.0) n (%)
- Adverse Event Orthostatic hypotension ([5]; 2.88 mg (N = 229)): 94 (42) n (%)
- Adverse Event Somnolence ([5]; 2.88 mg (N = 229)): 29 (13.1) n (%)
